One test concerns the target T1, NS3-NS4A protease (Hepatitis C virus genotype 1a, UniProt P27958).
T1 construct: Recombinant E. coli or Baculovirus full-length NS3 was diluted to 3.33 μM with assay buffer; made in house; host or cells: E. coli or baculovirus (BV) system
Kind of test: NS3-NS4A protease assay (NS3 inhibition assay, RETS1 substrate), Section B. In kind it is biochemical. To be noted: read-out: NS3-NS4A IC50. How it is done: NS3 complex formation with NS4A-2
Recombinant E. coli or Baculovirus full-length NS3 was diluted to 3.33 μM with assay buffer and the material transferred to an eppendorf tube and place in water bath in 4° C. refrigerator. The appropriate amount of NS4A-2 to 8.3 mM in assay buffer was added to equal the volume of NS3 in step 2.1.1 (conversion factor −3.8 mg/272 μL assay buffer). The material was transferred to an eppendorf tube and placed in a water bath in a 4° C. refrigerator.
After equilibration to 4° C., equal volumes of NS3 and NS4A-2 solutions were combined in an eppendorf tube, mixed gently with a manual pipettor, and the mixture incubated for 15 minutes in the 4° C. water bath. Final concentrations in the mixture were 1.67 μM NS3, 4.15 mM NS4A-2 (2485-fold molar excess NS4A-2).
After 15 minutes at 4° C., the NS3/NS4A-2 eppendorf tube was removed and placed in a room temperature water bath for 10 minutes. NS3/NS4A-2 was aliquoted at appropriate volumes and store at −80° C. (E. coli NS3 run at 2 nM in assay, aliquot at 25 μL. BV NS3 run at 3 nM in assay, aliquot at 30 μL.
Step 2.2.5. Sample compounds were dissolved to 10 mM in DMSO then diluted to 2.5 mM (1:4) in DMSO.
Step 2.2.6. The E. coli NS3/NS4A-2 was diluted to 4 nM NS3 (1:417.5 of 1.67 μM stock−18 μL 1.67 μM stock+7497 μL assay buffer).
The BV NS3/NS4A-2 was diluted to 6 nM NS3 (1:278.3 of 1.67 μM stock−24 μL 1.67 μM stock+6655 μL assay buffer).
Step 2.2.7. Using the manual multichannel pipettor, and being careful not to introduce bubbles into the plate, 50 μL assay buffer was added to wells A01-H01 of a black Costar 96-well polypropylene storage plate.
Step 2.2.8. Using the manual multichannel pipettor, and being careful not to introduce bubbles into the plate, 50 μL of diluted NS3/NS4A-2 from step 2.2.6 was added to wells A02-H12 of plate in step 2.2.7.
Step 2.2.9. Using the manual multichannel pipettor, and being careful not to introduce bubbles into the plate, 25 μL of the wells in drug dilution plate in step 2.2.5 were transferred to corresponding wells in assay plate in step 2.2.8. The tips on multichannel pipettor were changed for each row of compounds transferred.
Step 2.2.10. Using the manual multichannel pipettor, and being careful not to introduce bubbles into the plate, the wells from the assay plate in step 2.2.9 were mixed by aspirating and dispensing 35 μL of the 75 μL in each well five times. The tips on multichannel pipettor were changed for each row of wells mixed.
Step 2.2.11. The plate was covered with a polystyrene plate lid, and the plate from step 2.2.10 containing NS3 protease and sample compounds was pre-incubated 10 minutes at room temperature.
While the plate from step 2.2.11 was pre-incubating, the RETS1 substrate was diluted in a 15 mL polypropylene centrifuge tube. The RETS1 substrate was diluted to 8 μM (1:80.75 of 646 μM stock−65 μL 646 μM stock+5184 μL assay buffer).
After the plate in step 2.2.11 was done pre-incubating, and using the manual multichannel, 25 μL of substrate was added to all wells on the plate. The contents of the wells were quickly mixed, as in step 2.2.10, but mixing 65 μL of the 100 μL in the wells.
The plate was read in kinetic mode on the Molecular Devices SpectraMax Gemini XS plate reader. Reader settings: Read time: 30 minutes, Interval: 36 seconds, Reads: 51, Excitation λ: 335 nm, Emission λ: 495 nm, cutoff: 475 nm, Automix: off, Calibrate: once, PMT: high, Reads/well: 6, Vmax pts: 21 or 28/51 depending on length of linearity of reaction.
IC50s were determined using a four parameter curve fit equation, and converted to Ki's using the following Km's:
where Ki=IC50/(1+[S]/Km))

Test [1] deals with HCV sub-genomic replicon, GS4.3. Description: Quantitation by ELISA of NPTII in the HCV sub-genomic replicon, GS4.3, Section B. In kind it is cell-based. To be noted: Hepatitis C virus; GS4.3 cells, 72 h incubation; read-out: Replicon EC50. The source says:
Quantitation by ELISA of the Selectable Marker Protein, Neomycin Phosphotransferase II (NPTII) in the HCV Sub-Genomic Replicon, GS4.3
The HCV sub-genomic replicon (1377/NS3-3′, accession No. AJ242652), stably maintained in HuH-7 hepatoma cells, was created by Lohmann et al. Science 285: 110-113 (1999). The replicon-containing cell culture, designated GS4.3, was obtained from Dr. Christoph Seeger of the Institute for Cancer Research, Fox Chase Cancer Center, Philadelphia, Pa.
GS4.3 cells were maintained at 37° C., 5% CO2, in DMEM (Gibco 11965-092) supplemented with L-glutamine 200 mM (100×) (Gibco25030-081), non-essential amino acids (NEAA)(Biowhittaker 13-114E), heat-inactivated (HI) Fetal Bovine Serum(FBS)(Hyclone SH3007.03) and 750 μg/ml geneticin (G418)(Gibco 10131-035). Cells were sub-divided 1:3 or 4 every 2-3 days.
24 hours prior to the assay, GS4.3 cells were collected, counted, and plated in 96-well plates (Costar 3585) at 7500 cells/well in 100 μl standard maintenance medium (above) and incubated in the conditions above. To initiate the assay, culture medium was removed, cells were washed once with PBS (Gibco 10010-023) and 90 μl Assay Medium (DMEM, L-glutamine, NEAA, 10% HI FBS, no G418) was added. Inhibitors were made as a 10× stock in Assay Medium, (3-fold dilutions from 10 μM to […] final concentration, final DMSO concentration 1%), 10 μl were added to duplicate wells, plates were rocked to mix, and incubated as above for 72 h.
An NPTII ELISA kit was obtained from AGDIA, Inc. (Compound direct ELISA test system for Neomycin Phosphotransferase II, PSP 73000/4800). Manufacturer's instructions were followed, with some modifications. 10×PEB-1 lysis buffer was made up to include 500 μM PMSF (Sigma P7626, 50 mM stock in isopropanol). After 72 h incubation, cells were washed once with PBS and 150 μl PEB-1 with PMSF was added per well. Plates were agitated vigorously for 15 minutes, room temperature, then frozen at −70° C. Plates were thawed, lysates were mixed thoroughly, and 100 μl were applied to an NPTII Elisa plate. A standard curve was made. Lysate from DMSO-treated control cells was pooled, serially diluted with PEB-1 with PMSF, and applied to duplicate wells of the ELISA plate, in a range of initial lysate amount of 150u1-2.5 ul. In addition, 100 μl buffer alone was applied in duplicate as a blank. Plates were sealed and gently agitated at room temperature for 2 h. Following capture incubation, the plates were washed 5×300 μl with PBS-T (0.5% Tween-20, PBS-T was supplied in the ELISA kit). For detection, a 1× dilution of enzyme conjugate diluent MRS-2 (5×) was made in PBS-T, into which 1:100 dilutions of enzyme conjugates A and B were added, as per instructions. Plates were resealed, and incubated with agitation, covered, room temperature, for 2 h. The washing was then repeated and 100 μl of room temperature TMB substrate was added. After approximately 30 minutes incubation (room temperature, agitation, covered), the reaction was stopped with 50 μl 3M sulfuric acid. Plates were read at 450 nm on a Molecular Devices Versamax plate reader.
Inhibitor effect was expressed as a percentage of DMSO-treated control signal, and inhibition curves were calculated using a 4-parameter equation: y=A+((B−A)/(1+((C/x)^D))), where C is half-maximal activity or EC50.
In general terms: ELISA stands for enzyme-linked immunosorbent assay.

pEC50, pIC50: −log10 of the molar value. Where a name gives a salt, the structure may show the parent alone. Some results are limits rather than exact numbers.

T1 sequence (P27958 1027-1657): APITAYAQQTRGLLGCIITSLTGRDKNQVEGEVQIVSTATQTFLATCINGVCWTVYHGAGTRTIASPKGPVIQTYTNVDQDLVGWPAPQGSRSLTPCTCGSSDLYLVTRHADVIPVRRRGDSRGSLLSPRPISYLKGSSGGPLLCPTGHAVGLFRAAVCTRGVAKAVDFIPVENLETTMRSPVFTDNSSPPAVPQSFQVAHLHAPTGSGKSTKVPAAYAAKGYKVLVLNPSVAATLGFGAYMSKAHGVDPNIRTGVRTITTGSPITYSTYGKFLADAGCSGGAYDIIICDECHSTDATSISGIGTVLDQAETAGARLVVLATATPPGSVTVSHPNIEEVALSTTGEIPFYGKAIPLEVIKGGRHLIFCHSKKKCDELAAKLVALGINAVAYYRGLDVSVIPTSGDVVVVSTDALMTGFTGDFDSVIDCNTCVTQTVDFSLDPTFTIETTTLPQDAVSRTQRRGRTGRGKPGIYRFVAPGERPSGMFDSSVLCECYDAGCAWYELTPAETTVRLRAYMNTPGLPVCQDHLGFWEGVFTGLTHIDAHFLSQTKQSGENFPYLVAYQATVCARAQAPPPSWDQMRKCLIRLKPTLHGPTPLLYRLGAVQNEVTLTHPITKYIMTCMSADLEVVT

Broadly, the pIC50 is the negative decadic logarithm of the IC50, by convention in mol/L. As a reminder, the pEC50 is the negative decadic logarithm of the EC50, by convention in mol/L. As for `CC1CN(C(=O)O[C@@H]2C[C@H]3C(=O)N[C@]4(C(=O)O)C[C@H]4C=CCCCCC[C@H](NC(=O)OC(C)(C)C)C(=O)N3C2)Cc2ccccc21` (stereo partly drawn) [AR00304067, (1S,4R,6S,14S,18R)-14-tert-Butoxycarbonylamino-18-(4-methyl-3,4-dihydro-1H-isoquinoline-2-carbonyloxy)-2,15-dioxo-3,16-diaza-tricyclo[14.3.0.0^4,6]nonadec-7-ene-4-carboxylic acid], the pIC50 at NS3-NS4A protease was over 6.00. Also, the pEC50 in test [1] is over 5.00. `O=C(N[C@H]1CCCCC/C=C\[C@@H]2C[C@@]2(C(=O)NS(=O)(=O)C2CC2)NC(=O)[C@@H]2C[C@@H](OC(=O)N3Cc4ccc(Cl)cc4C3)CN2C1=O)OCCF` [AR00334222, (1S,4R,6S,14S,18R)-5-Chloro-1,3-dihydro-isoindole-2-carboxylic acid 4-cyclopropanesulfonylaminocarbonyl-14-(2-fluoro-ethoxycarbonylamino)-2,15-dioxo-3,16-diaza-tricyclo[14.3.0.0^4,6]nonadec-7-en-18-yl ester]: the pIC50 at NS3-NS4A protease is over 7.00. For the same molecule, the pEC50 in test [1] was over 7.00.

As to `O=C(N[C@H]1CCCCC/C=C\[C@@H]2C[C@@]2(C(=O)O)NC(=O)[C@@H]2C[C@@H](OC(=O)N3Cc4ccccc4C3)CN2C1=O)O[C@H]1CCOC1` [AR00320075, (1S,4R,6S,14S,18R)-18-(1,3-Dihydro-isoindole-2-carbonyloxy)-2,15-dioxo-14-(tetrahydro-furan-3S-yloxycarbonylamino)-3,16-diaza-tricyclo[14.3.0.0^4,6]nonadec-7-ene-4-carboxylic acid], the pIC50 at NS3-NS4A protease was over 6.00. The pEC50 in test [1] was over 5.00. `O=C(N[C@H]1CCCCC/C=C\[C@@H]2C[C@@]2(C(=O)O)NC(=O)[C@@H]2C[C@@H](OC(=O)N3Cc4cc(Cl)c(Cl)cc4C3)CN2C1=O)O[C@@H]1CCOC1` [AR00320445, (1S,4R,6S,14S,18R)-18-(5,6-Dichloro-1,3-dihydro-isoindole-2-carbonyloxy)-2,15-dioxo-14-(tetrahydro-furan-3R-yloxycarbonylamino)-3,16-diaza-tricyclo[14.3.0.0^4,6]nonadec-7-ene-4-carboxylic acid]: the pIC50 on NS3-NS4A protease was over 5.00. Still for that read-out and setting: to `COc1ccc(S(=O)(=O)NC(=O)[C@@]23C[C@H]2/C=C\CCCCC[C@H](NC(=O)OC(C)(C)C)C(=O)N2C[C@H](OC(=O)N4Cc5ccccc5C4)C[C@H]2C(=O)N3)cc1C(=O)O` [AR00365425, (1S,4R,6S,14S,18R)-1,3-Dihydro-isoindole-2-carboxylic acid 14-tert-butoxycarbonylamino-4-(3-carboxy-4-methoxy-benzenesulfonylaminocarbonyl)-2,15-dioxo-3,16-diaza-tricyclo[14.3.0.0^4,6]nonadec-7-en-18-yl ester] belongs over 7.00; to `COCC1c2cccc(F)c2CCN1C(=O)O[C@@H]1C[C@H]2C(=O)N[C@]3(C(=O)NS(=O)(=O)C4CC4)C[C@H]3/C=C\CCCCC[C@H](N)C(=O)N2C1` (stereo partly drawn) [AR00424775, (1S,4R,6S,14S,18R)-5-Fluoro-1-methoxymethyl-3,4-dihydro-1H-isoquinoline-2-carboxylic acid 14-amino-4-cyclopropanesulfonylaminocarbonyl-2,15-dioxo-3,16-diaza-tricyclo[14.3.0.0^4,6]nonadec-7-en-18-yl ester, HCl salt], over 7.00; to `N[C@H]1CCCCC/C=C\[C@@H]2C[C@@]2(C(=O)NS(=O)(=O)C2CC2)NC(=O)[C@@H]2C[C@@H](OC(=O)N3Cc4cccc(F)c4C3)CN2C1=O` [AR00424874, (1S,4R,6S,14S,18R)-4-Fluoro-1,3-dihydro-isoindole-2-carboxylic acid 14-amino-4-cyclopropanesulfonylaminocarbonyl-2,15-dioxo-3,16-diaza-tricyclo[14.3.0.0^4,6]nonadec-7-en-18-yl ester, HC1 salt], over 7.00.

As to `CC(C)(C)OC(=O)N[C@H]1CCCCC/C=C\[C@@H]2C[C@@]2(C(=O)NS(=O)(=O)c2cc(C(=O)O)ccc2Cl)NC(=O)[C@@H]2C[C@@H](OC(=O)N3Cc4ccccc4C3)CN2C1=O` [AR00365388, (1S,4R,6S,14S,18R)-1,3-Dihydro-isoindole-2-carboxylic acid 14-tert-butoxycarbonylamino-4-(5-carboxy-2-chloro-benzenesulfonylaminocarbonyl)-2,15-dioxo-3,16-diaza-tricyclo[14.3.0.0^4,6]nonadec-7-en-18-yl ester], the negative logarithm of the IC50 (pIC50) at NS3-NS4A protease was over 7.00.

Regarding `CC(C)(C)OC(=O)N[C@H]1CCCCC/C=C\[C@@H]2C[C@@]2(C(=O)O)NC(=O)[C@@H]2C[C@@H](OC(=O)N3CCc4nc(N)sc4C3)CN2C1=O` [AR00304154, (1S,4R,6S,14S,18R)-18-(2-Amino-6,7-dihydro-4H-thiazolo[5,4-c]pyridine-5-carbonyloxy)-14-tert-butoxycarbonylamino-2,15-dioxo-3,16-diaza-tricyclo[14.3.0.0^4,6]nonadec-7-ene-4-carboxylic acid], on NS3-NS4A protease, the pIC50 is over 5.00.

(Values after patent US7491794B2, “Macrocyclic compounds as inhibitors of viral replication” (Intermune, Inc., priority 2003, dated 2009).)
